According to patent US7626031B2, “Substituted 3-(diarylmethylene)indolin-2-ones and methods of their use” (Symphony Evolution, Inc., priority 2002, dated 2009):

Experiments:
FGFR1 = FGFR1 (Homo sapiens, UniProt P11362); experiment: Kinase assay, FGFR1 (33P-ATP incorporation or luciferase-coupled ATP consumption); assay type: biochemical
Outline: (§1)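 Kinase activity measured either by γ-33P ATP incorporation into immobilized substrate (MBP or pEY) with scintillation counting, or by luciferase-based ATP consumption with pEY. Enzyme 10 or 20 nM; ATP near each kinase's KM (e.g. 10 or 30 μM); 1 h at room temperature, 1% DMSO, 10-point dose-response.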

EphA2 = EphA2 (Homo sapiens, UniProt P29317); experiment: Kinase assay, EphA2 (33P-ATP incorporation or luciferase-coupled ATP consumption); assay type: biochemical
Outline: as §1

c-Kit kinase = c-Kit kinase (Homo sapiens, UniProt P10721); experiment: c-Kit AlphaScreen kinase assay; assay type: biochemical
Sequence of c-Kit kinase (P10721 26-976): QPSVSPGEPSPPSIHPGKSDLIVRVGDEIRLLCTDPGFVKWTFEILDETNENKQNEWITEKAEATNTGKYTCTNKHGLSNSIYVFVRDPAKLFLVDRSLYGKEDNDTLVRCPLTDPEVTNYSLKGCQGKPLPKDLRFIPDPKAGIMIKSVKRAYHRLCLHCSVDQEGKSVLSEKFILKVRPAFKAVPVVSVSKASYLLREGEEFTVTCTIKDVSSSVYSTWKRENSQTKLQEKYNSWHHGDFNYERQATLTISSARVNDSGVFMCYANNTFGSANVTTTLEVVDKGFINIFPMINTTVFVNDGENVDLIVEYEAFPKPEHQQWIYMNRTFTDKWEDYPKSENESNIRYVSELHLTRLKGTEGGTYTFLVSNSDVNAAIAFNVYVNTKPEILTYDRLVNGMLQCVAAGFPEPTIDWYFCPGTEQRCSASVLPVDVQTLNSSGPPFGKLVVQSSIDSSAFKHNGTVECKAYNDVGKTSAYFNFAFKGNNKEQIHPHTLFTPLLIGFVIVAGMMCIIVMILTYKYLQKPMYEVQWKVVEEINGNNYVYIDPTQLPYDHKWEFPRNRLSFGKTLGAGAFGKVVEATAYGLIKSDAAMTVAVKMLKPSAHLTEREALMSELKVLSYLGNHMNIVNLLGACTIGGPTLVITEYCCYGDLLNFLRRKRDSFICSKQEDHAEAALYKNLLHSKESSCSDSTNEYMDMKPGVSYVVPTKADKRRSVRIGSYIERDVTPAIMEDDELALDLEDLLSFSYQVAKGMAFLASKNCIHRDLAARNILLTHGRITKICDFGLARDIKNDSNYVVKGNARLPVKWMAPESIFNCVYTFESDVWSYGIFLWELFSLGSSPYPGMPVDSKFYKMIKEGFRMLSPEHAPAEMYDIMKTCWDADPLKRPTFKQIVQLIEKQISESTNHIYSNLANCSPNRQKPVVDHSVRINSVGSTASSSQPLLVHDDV
Procedure: (§2) Kinase activity and compound inhibition are investigated using one or more assay formats. The ATP concentrations for each assay are selected to be close to the Michaelis-Menten constant (KM) for each individual kinase. Dose-response experiments are performed at 10 different inhibitor concentrations in a 384-well plate format. […] Exemplary kinase assays are described below. KDR Assay
c-Kit biochemical activity was assessed using AlphaScreen™ (Perkin Elmer) technology, described above. Test compounds, ATP, biotinylated poly(Glu, Tyr) and c-Kit kinase were combined in a volume of 20 μL in a 384-well white, medium binding microtiter plate (Greiner). Reaction mixtures were incubated for 1 hr at ambient temperature. Reactions were quenched by addition of 10 uL of […] AlphaScreen bead suspension containing 75 mM Hepes, pH 7.4, 300 mM NaCl, 120 mM EDTA, 0.3% BSA and 0.03% Tween-20. After 16 hr incubation at ambient temperature plates were read using an AlphaQuest reader (Perkin Elmer).

PDGFR alpha = PDGFR alpha (Homo sapiens, UniProt P16234); experiment: Kinase assay, PDGFR alpha (33P-ATP incorporation or luciferase-coupled ATP consumption); assay type: biochemical; conditions: read-out: PDGF-R-A IC50
Sequence of PDGFR alpha (P16234 24-1089): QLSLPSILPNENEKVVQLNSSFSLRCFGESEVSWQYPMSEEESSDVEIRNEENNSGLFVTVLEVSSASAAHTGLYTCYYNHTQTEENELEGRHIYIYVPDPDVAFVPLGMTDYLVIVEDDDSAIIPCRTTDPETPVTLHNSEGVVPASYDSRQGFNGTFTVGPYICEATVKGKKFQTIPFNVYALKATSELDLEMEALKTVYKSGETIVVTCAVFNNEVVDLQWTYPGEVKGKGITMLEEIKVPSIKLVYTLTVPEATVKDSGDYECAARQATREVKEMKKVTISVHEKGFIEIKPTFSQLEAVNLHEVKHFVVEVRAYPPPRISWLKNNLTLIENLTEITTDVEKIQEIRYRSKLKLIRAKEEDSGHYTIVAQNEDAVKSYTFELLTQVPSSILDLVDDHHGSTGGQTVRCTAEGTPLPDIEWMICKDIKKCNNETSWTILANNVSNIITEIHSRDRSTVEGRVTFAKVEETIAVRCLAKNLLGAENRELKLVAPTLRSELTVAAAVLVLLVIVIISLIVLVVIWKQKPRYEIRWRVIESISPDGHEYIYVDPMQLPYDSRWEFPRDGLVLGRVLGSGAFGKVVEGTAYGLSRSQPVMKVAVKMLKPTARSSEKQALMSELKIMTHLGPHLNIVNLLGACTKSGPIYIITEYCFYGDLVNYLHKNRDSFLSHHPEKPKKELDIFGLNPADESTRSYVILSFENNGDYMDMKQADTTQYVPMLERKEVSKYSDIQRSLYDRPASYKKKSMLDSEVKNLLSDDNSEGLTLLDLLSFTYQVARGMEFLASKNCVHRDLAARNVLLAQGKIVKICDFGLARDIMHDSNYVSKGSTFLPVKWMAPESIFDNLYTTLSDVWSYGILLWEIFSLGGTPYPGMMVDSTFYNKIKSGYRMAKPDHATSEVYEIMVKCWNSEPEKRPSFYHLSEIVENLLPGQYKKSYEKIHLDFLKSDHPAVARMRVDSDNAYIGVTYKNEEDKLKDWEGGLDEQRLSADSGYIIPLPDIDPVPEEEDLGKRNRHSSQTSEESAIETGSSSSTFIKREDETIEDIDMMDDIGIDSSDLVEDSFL
Outline: as §1

IRK = IRK (Homo sapiens, UniProt P06213); experiment: Kinase assay, IRK; assay type: biochemical
Sequence of IRK (P06213 28-1382): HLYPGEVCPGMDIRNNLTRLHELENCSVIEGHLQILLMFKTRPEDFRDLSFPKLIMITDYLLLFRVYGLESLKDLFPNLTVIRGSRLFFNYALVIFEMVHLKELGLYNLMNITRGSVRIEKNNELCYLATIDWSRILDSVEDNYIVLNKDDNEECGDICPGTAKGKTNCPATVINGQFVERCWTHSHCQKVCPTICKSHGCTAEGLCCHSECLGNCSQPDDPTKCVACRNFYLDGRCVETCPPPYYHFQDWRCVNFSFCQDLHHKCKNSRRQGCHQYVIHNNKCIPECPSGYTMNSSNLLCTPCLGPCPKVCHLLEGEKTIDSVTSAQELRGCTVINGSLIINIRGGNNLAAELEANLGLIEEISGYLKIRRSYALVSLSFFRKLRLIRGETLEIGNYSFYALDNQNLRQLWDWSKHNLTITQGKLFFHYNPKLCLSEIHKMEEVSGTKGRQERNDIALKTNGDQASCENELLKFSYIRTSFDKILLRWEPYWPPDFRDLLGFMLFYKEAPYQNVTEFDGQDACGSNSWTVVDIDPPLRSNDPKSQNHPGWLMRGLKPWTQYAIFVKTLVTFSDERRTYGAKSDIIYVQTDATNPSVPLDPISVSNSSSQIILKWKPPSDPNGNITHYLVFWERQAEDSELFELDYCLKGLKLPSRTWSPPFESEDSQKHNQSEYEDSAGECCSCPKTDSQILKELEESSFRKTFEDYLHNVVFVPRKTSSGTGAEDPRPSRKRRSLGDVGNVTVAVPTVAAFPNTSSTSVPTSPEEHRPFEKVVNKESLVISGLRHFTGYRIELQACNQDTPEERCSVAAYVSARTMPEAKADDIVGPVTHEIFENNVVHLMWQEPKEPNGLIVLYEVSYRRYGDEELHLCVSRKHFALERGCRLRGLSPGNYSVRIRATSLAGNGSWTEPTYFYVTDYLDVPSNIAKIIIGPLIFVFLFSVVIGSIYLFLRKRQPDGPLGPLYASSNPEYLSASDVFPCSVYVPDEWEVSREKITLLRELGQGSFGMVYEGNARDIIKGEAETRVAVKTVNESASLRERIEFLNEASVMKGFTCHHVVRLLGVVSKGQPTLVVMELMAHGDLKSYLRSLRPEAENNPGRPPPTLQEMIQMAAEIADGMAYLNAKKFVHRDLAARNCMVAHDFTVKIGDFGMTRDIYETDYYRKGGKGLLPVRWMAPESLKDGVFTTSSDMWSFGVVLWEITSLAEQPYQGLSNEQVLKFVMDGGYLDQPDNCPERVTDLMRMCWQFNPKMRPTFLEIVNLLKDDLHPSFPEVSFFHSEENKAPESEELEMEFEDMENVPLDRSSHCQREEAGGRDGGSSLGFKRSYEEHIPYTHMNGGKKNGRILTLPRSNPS
Procedure: as §2

Fyn = Fyn (Homo sapiens, UniProt P06241); experiment: Kinase assay, Fyn; assay type: biochemical
Sequence of Fyn (P06241 whole entry, species assumed): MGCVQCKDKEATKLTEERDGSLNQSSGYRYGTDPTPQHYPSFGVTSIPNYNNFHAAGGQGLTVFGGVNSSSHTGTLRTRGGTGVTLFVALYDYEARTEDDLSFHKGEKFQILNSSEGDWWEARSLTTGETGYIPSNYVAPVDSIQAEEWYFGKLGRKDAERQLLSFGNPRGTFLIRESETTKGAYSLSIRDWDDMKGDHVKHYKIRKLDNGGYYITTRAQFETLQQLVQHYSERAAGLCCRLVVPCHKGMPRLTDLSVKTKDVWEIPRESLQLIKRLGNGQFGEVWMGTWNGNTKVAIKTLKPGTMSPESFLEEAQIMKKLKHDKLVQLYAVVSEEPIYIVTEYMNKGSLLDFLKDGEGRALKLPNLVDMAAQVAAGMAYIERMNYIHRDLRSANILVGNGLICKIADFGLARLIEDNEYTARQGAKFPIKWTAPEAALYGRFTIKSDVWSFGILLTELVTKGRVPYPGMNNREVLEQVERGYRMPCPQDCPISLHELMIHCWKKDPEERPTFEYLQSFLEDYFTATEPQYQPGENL
Procedure: as §2

[1] = molecular target: T1, KDR (baculovirus expressed human KDR kinase domain D807-V1356) (Homo sapiens, UniProt P35968); experiment: biochemical
T1 construct: human KDR kinase domain D807-V1356; host or cells: baculovirus expression system
Outline: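 Luciferase-coupled chemiluminescence quantifies ATP left after a 4 h room-temperature reaction of KDR kinase domain (D807–V1356, baculovirus-expressed human). ATP set close to KM; inhibitors tested at 10 concentrations.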

EGFR = EGFR (Homo sapiens, UniProt P00533); experiment: Kinase assay, EGFR (33P-ATP incorporation or luciferase-coupled ATP consumption); assay type: biochemical
Outline: as §1

Sequence of FGFR1 (P11362 22-822, species assumed): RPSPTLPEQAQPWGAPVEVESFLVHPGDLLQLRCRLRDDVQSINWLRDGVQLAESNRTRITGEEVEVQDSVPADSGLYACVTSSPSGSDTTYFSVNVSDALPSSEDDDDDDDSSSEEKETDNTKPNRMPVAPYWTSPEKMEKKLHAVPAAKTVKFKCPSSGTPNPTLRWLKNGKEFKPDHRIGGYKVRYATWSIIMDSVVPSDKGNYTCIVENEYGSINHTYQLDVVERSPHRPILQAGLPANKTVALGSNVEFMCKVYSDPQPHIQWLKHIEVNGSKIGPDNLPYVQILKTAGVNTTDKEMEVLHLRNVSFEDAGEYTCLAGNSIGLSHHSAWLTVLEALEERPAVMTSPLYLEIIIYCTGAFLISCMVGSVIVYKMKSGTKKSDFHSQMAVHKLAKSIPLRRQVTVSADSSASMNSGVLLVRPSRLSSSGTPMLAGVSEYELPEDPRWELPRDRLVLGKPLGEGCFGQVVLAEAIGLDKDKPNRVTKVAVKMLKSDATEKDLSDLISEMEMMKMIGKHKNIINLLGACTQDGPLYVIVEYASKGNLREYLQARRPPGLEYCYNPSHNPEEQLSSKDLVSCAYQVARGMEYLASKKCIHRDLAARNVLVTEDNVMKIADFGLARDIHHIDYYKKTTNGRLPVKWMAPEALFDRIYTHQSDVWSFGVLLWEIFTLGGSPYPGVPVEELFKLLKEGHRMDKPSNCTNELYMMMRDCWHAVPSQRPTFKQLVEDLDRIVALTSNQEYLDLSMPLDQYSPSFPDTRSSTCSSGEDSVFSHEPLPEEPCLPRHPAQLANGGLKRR

| Compound | IC50 (FGFR1) | IC50 (EphA2) | IC50 (c-Kit kinase) | IC50 (PDGFR alpha) | IC50 (IRK) | IC50 (Fyn) | IC50 [1] | IC50 (EGFR) |
| --- | --- | --- | --- | --- | --- | --- | --- | --- |
| CCN1CCC(Nc2ccc3c(c2)/C(=C(\c2ccc(F)cc2)c2nc(C)c[nH]2)C(=O)N3)CC1 [Entry 106, (3Z)-5-[(1-ethylpiperidin-4-yl)amino]-3-[(4-fluorophenyl)(4-methyl-1H-imidazol-2-yl)methylidene]-1,3-dihydro-2H-indol-2-one] | 50 to 500 nM | 500 to 5000 nM | 50 to 500 nM | < 50 nM | 500 to 5000 nM | < 50 nM | < 50 nM | 50 to 500 nM |
| CCN1CCC(Nc2ccc3c(c2)/C(=C(/c2ncc[nH]2)c2ccccc2F)C(=O)N3)CC1 [Entry 107, (3Z)-5-[(1-ethylpiperidin-4-yl)amino]-3-[(2-fluorophenyl)(1H-imidazol-2-yl)methylidene]-1,3-dihydro-2H-indol-2-one] | < 50 nM | 500 to 5000 nM | < 50 nM | < 50 nM | 500 to 5000 nM | < 50 nM | < 50 nM | 50 to 500 nM |
| CCN1CCC(Nc2ccc3c(c2)/C(=C(/c2nc(C)c[nH]2)c2ccc(C(F)(F)F)cc2F)C(=O)N3)CC1 [Entry 108, (3Z)-5-[(1-ethylpiperidin-4-yl)amino]-3-[[2-fluoro-4-(trifluoromethyl)phenyl] (4-methyl-1H-imidazol-2-yl)methylidene]-1,3-dihydro-2H-indol-2-one] | < 50 nM | 500 to 5000 nM | < 50 nM | < 50 nM | 500 to 5000 nM | < 50 nM | < 50 nM | 50 to 500 nM |
| CCN1CCC(Nc2ccc3c(c2)/C(=C(/c2ncc[nH]2)c2cccc(F)c2F)C(=O)N3)CC1 [Entry 109, (3Z)-3-[(2,3-difluorophenyl)(1H-imidazol-2-yl)methylidene]-5-[(1-ethylpiperidin-4-yl)amino]-1,3-dihydro-2H-indol-2-one] | < 50 nM | 500 to 5000 nM | < 50 nM | < 50 nM | 500 to 5000 nM | < 50 nM | < 50 nM | 50 to 500 nM |
| CCN1CCC(Nc2ccc3c(c2)/C(=C(/c2ncc[nH]2)c2ccc(F)cc2F)C(=O)N3)CC1 [Entry 112, (3Z)-3-[(2,4-difluorophenyl)(1H-imidazol-2-yl)methylidene]-5-[(1-ethylpiperidin-4-yl)amino]-1,3-dihydro-2H-indol-2-one] | < 50 nM | 500 to 5000 nM | < 50 nM | < 50 nM | 500 to 5000 nM | < 50 nM | < 50 nM | 50 to 500 nM |
| CCN1CCC(Nc2ccc3c(c2)/C(=C(\c2cccc(C(F)(F)F)c2)c2ncc[nH]2)C(=O)N3)CC1 [Entry 114, (3Z)-3-[(3-trifluoromethylphenyl)(1H-imidazol-2-yl)methylidene]-5-[(1-ethylpiperidin-4-yl)amino]-1,3-dihydro-2H-indol-2-one] | 50 to 500 nM | 500 to 5000 nM | 50 to 500 nM | < 50 nM | > 5000 nM | 50 to 500 nM | < 50 nM | 500 to 5000 nM |
| CCN1CCC(Nc2ccc3c(c2)/C(=C(\c2cccc(C(F)(F)F)c2)c2nc(C)c[nH]2)C(=O)N3)CC1 [Entry 115, (3Z)-3-[(3-trifluoromethylphenyl)(4-methyl-1H-imidazol-2-yl)methylidene]-5-[(1-ethylpiperidin-4-yl)amino]-1,3-dihydro-2H-indol-2-one] | 50 to 500 nM | 500 to 5000 nM | < 50 nM | < 50 nM | 500 to 5000 nM | 50 to 500 nM | < 50 nM | 500 to 5000 nM |

Other lines, results leading:

| IC50 (FGFR1) | IC50 (EphA2) | IC50 (c-Kit kinase) | IC50 (PDGFR alpha) | IC50 (IRK) | IC50 (Fyn) | IC50 [1] | IC50 (EGFR) | Compound |
| --- | --- | --- | --- | --- | --- | --- | --- | --- |
| < 50 nM | 500 to 5000 nM | < 50 nM | < 50 nM | > 5000 nM | < 50 nM | < 50 nM | 500 to 5000 nM | CCN1CCC(Nc2ccc3c(c2)/C(=C(\c2ccc(F)c(Cl)c2)c2ncc[nH]2)C(=O)N3)CC1 [Entry 53, (3Z)-3-[(3-chloro-4-fluorophenyl) (1H-imidazol-2-yl)methylidene]-5-[(1-ethylpiperidin-4-yl)amino]-1,3-dihydro-2H-indol-2-one] |
| < 50 nM | 500 to 5000 nM | 50 to 500 nM | < 50 nM | > 5000 nM | < 50 nM | < 50 nM | 500 to 5000 nM | CCN1CCC(Nc2ccc3c(c2)/C(=C(\c2ccc(F)c(F)c2)c2ncc[nH]2)C(=O)N3)CC1 [Entry 54, (3Z)-3-[(3,4-difluorophenyl)(1H-imidazol-2-yl)methylidene]-5-[(1-ethylpiperidin-4-yl)amino]-1,3-dihydro-2H-indol-2-one] |
| < 50 nM | 500 to 5000 nM | 50 to 500 nM | < 50 nM | > 5000 nM | < 50 nM | < 50 nM | 500 to 5000 nM | CCN1CCC(Nc2ccc3c(c2)/C(=C(\c2ccc(C(F)(F)F)cc2)c2ncc[nH]2)C(=O)N3)CC1 [Entry 60, (3Z)-5-[(1-ethylpiperidin-4-yl)amino]-3-{1H-imidazol-2-yl[4-(trifluoromethyl)phenyl]methylidene}-1,3-dihydro-2H-indol-2-one] |
| < 50 nM | 500 to 5000 nM | 50 to 500 nM | < 50 nM | > 5000 nM | < 50 nM | < 50 nM | 50 to 500 nM | CCN1CCC(Nc2ccc3c(c2)/C(=C(\c2ccc(C(F)(F)F)c(F)c2)c2ncc[nH]2)C(=O)N3)CC1 [Entry 65, (3Z)-5-[(1-ethylpiperidin-4-yl)amino]-3-[[3-fluoro-4-(trifluoromethyl)phenyl](1H-imidazol-2-yl)methylidene]-1,3-dihydro-2H-indol-2-one] |
| < 50 nM | 500 to 5000 nM | 50 to 500 nM | < 50 nM | > 5000 nM | < 50 nM | < 50 nM | 50 to 500 nM | CCN1CCC(Nc2ccc3c(c2)/C(=C(\c2cc(F)cc(F)c2)c2ncc[nH]2)C(=O)N3)CC1 [Entry 73, (3Z)-3-[(3,5-difluorophenyl)(1H-imidazol-2-yl)methylidene]-5-[(1-ethylpiperidin-4-yl)amino]-1,3-dihydro-2H-indol-2-one] |
| < 50 nM | 500 to 5000 nM | < 50 nM | < 50 nM | 500 to 5000 nM | < 50 nM | < 50 nM | 50 to 500 nM | CCN1CCC(Nc2ccc3c(c2)/C(=C(/c2ncc[nH]2)c2ccc(C(F)(F)F)cc2F)C(=O)N3)CC1 [Entry 100, (3Z)-5-[(1-ethylpiperidin-4-yl)amino]-3-[[2-fluoro-4-(trifluoromethyl)phenyl] (1H-imidazol-2-yl)methylidene]-1,3-dihydro-2H-indol-2-one] |
| < 50 nM | 500 to 5000 nM | 50 to 500 nM | < 50 nM | 500 to 5000 nM | < 50 nM | < 50 nM | 50 to 500 nM | CCN1CCC(Nc2ccc3c(c2)/C(=C(\c2ccc(C(F)(F)F)cc2)c2nc(C)c[nH]2)C(=O)N3)CC1 [Entry 101] |
| < 50 nM | 500 to 5000 nM | 50 to 500 nM |  | 500 to 5000 nM | < 50 nM | < 50 nM | < 50 nM | CCN1CCC(Nc2ccc3c(c2)/C(=C(\c2ccc(C(F)(F)F)c(F)c2)c2nc(C)c[nH]2)C(=O)N3)CC1 [Entry 103, (3Z)-5-[(1-ethylpiperidin-4-yl)amino]-3-[[3-fluoro-4-(trifluoromethyl)phenyl](4-methyl-1H-imidazol-2-yl)methylidene]-1,3-dihydro-2H-indol-2-one] |
| < 50 nM | 500 to 5000 nM | 50 to 500 nM | < 50 nM | > 5000 nM | < 50 nM | < 50 nM | < 50 nM | CCN1CCC(Nc2ccc3c(c2)/C(=C(\c2ccc(F)c(F)c2)c2nc(C)c[nH]2)C(=O)N3)CC1 [Entry 104, (3Z)-3-[(3,4-difluorophenyl)(4-methyl-1H-imidazol-2-yl)methylidene]-5-[(1-ethylpiperidin-4-yl)amino]-1,3-dihydro-2H-indol-2-one] |
| < 50 nM | 500 to 5000 nM | 50 to 500 nM | < 50 nM | 500 to 5000 nM | < 50 nM | < 50 nM | 50 to 500 nM | CCN1CCC(Nc2ccc3c(c2)/C(=C(\c2ccc(F)c(Cl)c2)c2nc(C)c[nH]2)C(=O)N3)CC1 [Entry 105, (3Z)-3-[(3-chloro-4-fluorophenyl)(4-methyl-1H-imidazol-2-yl)methylidene]-5-[(1-ethylpiperidin-4-yl)amino]-1,3-dihydro-2H-indol-2-one] |
